Data: patent US20220256900A1, “COMPOSITIONS WITH SUGAR LIKE CHARACTERISTICS” (CORN PRODUCTS DEVELOPMENT, INC., priority 2019, published 2022)

Tests used:
Format in all cases: in vivo
[1] = system: trained descriptive analysis (DA) panel; experiment: Sensory evaluation of Test Compound/Reb M blends (sweetness quality and off-taste profile), 15 cm scale; conditions: in water solution
[2] = system: 3 tasters; experiment: Taste profile of Test Compound Na Salt with sucralose in pH 3.0 buffer (Example 7)
Description: The taste profile of the Test Compound Sweetener (Na Salt of the compound) was evaluated in combination with sweeteners—namely sucralose. These samples were evaluated in pH 3.0 buffer at 10 SE by 3 tasters. Samples were tasted in a blinded fashion using sip and spit methodology. The focus of the evaluation was to obtain an indication of the sweetness profile of the blends when compared to sucrose.
Materials and Methods. Potassium sorbate was dissolved into water. The remaining ingredients were added and mixed until fully dissolved. The samples were tasted using sip and spit method. The samples were then compared to each other and the HFCS-55 sweetness equivalence target (10 SE).

[3] = system: trained descriptive analysis (DA) panel; experiment: Concentration-response testing of the Test Compound vs sucrose, sweetness intensity on gLMS; conditions: in water at room temperature; tested range 0% to 0.2% (2000 ppm)
Description: A concentration-response (CR) testing of the Test Compound was conducted using a trained descriptive analysis (DA) panel to compare the Test Compound in an aqueous matrix to sucrose. The concentration-response curve for the natural sweetener (Test Compound) was determined using a general Labeled Magnitude Scale (gLMS). Trained panelists were asked to rate the sweetness intensity of eight (8) concentrations of sweetener and sucrose, in water at room temperature (RT). […] This relationship was established using a dose response model (Equation 2: R=Rmin+(C^Hillslope)*(Rmax−Rmin)/(C^HillSlope+EC50^HillSlope) for Sucrose and the Test Compound Sweetener. Study design and Test Samples: A trained panel of 10-12 descriptive analysis panelists participated in the experiment. All participants underwent training, during which panelists familiarized themselves with rating the sweetness intensity on the gLMS scale. The scale is depicted in FIG. 4 as a vertical line marked with anchors describing different intensities. The panelists were instructed to rate the perceived sweetness intensity for each sample by marking a line on the scale. The order of samples was randomized and blinded using the William's Latin Square design. The order of sample presentation within each sweetener set was also randomized. All samples were evaluated using a sip and spit protocol.

[4] = system: trained descriptive analysis (DA) panel; experiment: Sensory evaluation of Test Compound/Reb M blends (sweetness quality and off-taste profile), 15 cm scale; conditions: RO water, samples target 10 Brix sucrose, 1000 ppm Test Comp, 600 ppm Reb M; for Bitter Aftertaste (1 min) / Sweet Aftertaste (1 min): 1 minute after expectoration; for Bitter Aftertaste (3 min) / Sweet Aftertaste (3 min): 3 minutes after expectoration; for Astringent / Bitter / Licorice / Metallic / Sweet AT (Appearance Time) / Sweet Intensity (ns) / Thickness: room temperature, LSD means
Description: Sensory results for sweetener blends with Reb M were evaluated using a trained descriptive analysis (DA) panel. Five blend samples were tested in this panel; wherein each sample was designed to target a sweetness equivalence of 10 Brix Sucrose.
Study Designs and Test Samples. A validated and trained panel of 10-12 descriptive analysis panelists participated in these experiments.
During the test sessions, panelists rated the intensity of each attribute on a 15 cm scale. Five test samples were tested for each attribute, in triplicate. The order of samples was randomized and blinded using the Williams Latin Square design. All samples were prepared in reverse osmosis (RO) water and served at room temperature and evaluated using a sip and spit protocol.
Each of the five samples were evaluated for sensory attributes corresponding to sweetness quality and off-taste profile. Attributes of sweetness intensity, sweetness appearance time, sweetness aftertaste and thickness were evaluated as part of the sweetness quality profiling. Specifically, for sweetness aftertaste two time points were evaluated; 1 minute and 3 minutes, after expectoration. The sweetness aftertaste corresponds to the sweetness linger characteristic, often common to high potency sweeteners.
Off-Taste Profile. All 5 blend samples were also evaluated for attributes of bitter, astringent, metallic, licorice, and bitter aftertaste, as part of the off-taste profiling. Specifically, for bitter aftertaste two time points were evaluated; 1 minute and 3 minutes, after expectoration. When referring to ‘bitter’ tastes herein it refers to a sample that confers a bitter taste, activates or that can be detected by a bitter taste receptor and/or confers the perception of a bitter taste in a subject. Table 5 lists the LSD Means Differences for the off-taste evaluation across the 5 blend samples with Reb M.

[5] = system: 3 tasters; experiment: Taste profile of Test Compound Na Salt with Reb A in pH 3.0 buffer (Example 5)
Description: (§1) The taste profile of the Test Compound Sweetener (Na Salt of the compound) was evaluated in combination with sweeteners—namely Rebaudioside A (Reb A). Enliten® 300000 (Reb A 95) was used in combination with the Test Compound. These samples were evaluated in pH 3.0 buffer by 3 tasters. Samples were tasted in a blinded fashion using sip and spit methodology. The focus of the evaluation was to obtain an indication of the sweetness profile of the blends when compared to sucrose. Materials and Methods. Potassium sorbate was dissolved into water. The remaining ingredients were added and mixed until fully dissolved. The pH of each sample was recorded and the samples tasted using sip and spit method. The samples were then compared to each other.

[6] = system: 3 tasters; experiment: Taste profile of Test Compound Na Salt with HFCS-55 in pH 3.0 buffer (Example 4); conditions: Test Compound (Na Salt) 1100 ppm
Description: as §1, with “High Fructose Corn Syrup (HFCS-55).” for “Rebaudioside A (Reb A). Enliten® 300000 (Reb A 95) was used in combination with the Test Compound.”

[7] = 10 SE target, Test Compound Na Salt 1100 ppm, blend 550 ppm + 85 ppm Sucralose, Sucralose 170 ppm

Compound	Bitter Aftertaste (1 min) [4]	Sweet Aftertaste (1 min) [4]	Bitter Aftertaste (3 min) [4]	Sweet Aftertaste (3 min) [4]	Astringent [4]	Bitter [4]	Licorice [4]	Metallic [4]	Sweet AT (Appearance Time) [4]	Sweet Intensity (ns) [4]	Thickness [4]	also measured
Cc1ccc2[nH]cc(C[C@@H](N)C(=O)O)c2c1 [Compound 5, (R)-2-amino-3-(5-methyl-1H-indol-3-yl)propanoic acid]	0.2	3.1	0.1	0.2	1.7	1.5	1.6	1.1	4.2	10.0	6.7	off-taste of the sweetener by itself [1]: minimal bitterness, astringency and bitter linger; adaptation ([2]; in combination with sucralose): helped reduce the adaptation commonly with sucralose; concentration-response curve (sweetness intensity, gLMS) [3]: linear relationship; adaptation ([5]; in combination with Reb A): helped reduce the adaptation commonly with Reb A; mouthfeel ([6]; blend 550 ppm + 6.49% HFCS-55): lower in mouthfeel; sweetness and taste ([6]; blend 550 ppm + 6.49% HFCS-55, HFCS-55 12.987%): fairly clean in taste and provides good upfront sweetness
C=C1C[C@@]23CC[C@H]4[C@@](C)(CCC[C@@]4(C)C(=O)O[C@@H]4O[C@H](CO)[C@@H](O)[C@H](O)[C@H]4O)[C@@H]2CC[C@]1(O[C@@H]1O[C@H](CO)[C@@H](O)[C@H](O[C@@H]2O[C@H](CO)[C@@H](O)[C@H](O)[C@H]2O)[C@H]1O[C@@H]1O[C@H](CO)[C@@H](O)[C@H](O)[C@H]1O)C3 [Reb A, Rebaudioside A]												sweetness and taste ([5]; 8SE target, Test Compound Na Salt 880 ppm, blend 440 ppm + 275 ppm Reb A, Reb A 550 ppm): much less sweet than 8SE; onset, decay and off notes ([5]; Test Compound Na Salt 880 ppm, blend 440 ppm + 275 ppm Reb A, Reb A 550 ppm): plastic/floral/metallic taste to it with a bitter and astringent linger
C=C1C[C@@]23CC[C@H]4[C@@](C)(CCC[C@@]4(C)C(=O)O[C@@H]4O[C@H](CO)[C@@H](O)[C@H](O[C@@H]5O[C@H](CO)[C@@H](O)[C@H](O)[C@H]5O)[C@H]4O[C@@H]4O[C@H](CO)[C@@H](O)[C@H](O)[C@H]4O)[C@@H]2CC[C@]1(O[C@@H]1O[C@H](CO)[C@@H](O)[C@H](O[C@@H]2O[C@H](CO)[C@@H](O)[C@H](O)[C@H]2O)[C@H]1O[C@@H]1O[C@H](CO)[C@@H](O)[C@H](O)[C@H]1O)C3 [Reb M, Rebaudioside M, reference compound]	1.6	5.1	0.9	1.8	3.1	4.0	3.4	1.7	6.8	10.0	3.5	
OC[C@H]1O[C@H](O[C@]2(CCl)O[C@H](CCl)[C@@H](O)[C@@H]2O)[C@H](O)[C@@H](O)[C@H]1Cl [Sucralose, sucralose]												mouthfeel and aftertaste/linger [2, 7]: Significant aftertaste/linger; sweetness vs HFCS-55 target [2, 7]: less sweet than HFCS (LOSE) with a delayed sweetness
